The text below walks through data of patent publication US20250122144A1, “Compound and Molded Body Comprising Same” (LG Chem, Ltd., priority 2022, published 2025).

The nature of this data set: Evaluation of heat resistance by thermogravimetric analyzer (TGA), primary thermal decomposition temperature. It counts as physicochemical. The settings on record: N2 atmospheric environment, FIG. 9. The protocol: In this experiment, the evaluation of heat resistance was defined as an extrapolated intersection point (primary thermal decomposition temperature) between a starting mass reference line and the tangent line of the maximum slope point in the first mass reduction section of a mass loss curve measured by a thermogravimetric analyzer (TGA) in an N2 atmospheric environment.
In the present disclosure, it is determined that when the primary thermal decomposition temperature of the compound has a value higher than the primary thermal decomposition temperature of the material before anion substitution, the heat resistance has increased.

With `C=C(C)C(=O)OCC[N+](C)(C)CCCCCCCCCC.[Br-]` [Comparative Example 4-1], the “Td (thermal decomposition temperature)” value was “about 230 °C”. Turning to `C=C(C)C(=O)OCC[N+](C)(C)CCCCCCCCCC.O=S(=O)([O-])O` [Example 4-1], the “heat resistance compared with the material before anion substitution” value is given as “heat resistance is improved”.
